Earlier results in paper PMC4891577, “Exploiting Phenylpropanoid Derivatives to Enhance the Nutraceutical Values of Cereals and Legumes” (Frontiers in Plant Science, 2016).

What was measured:
[1] = test system: Caco-2 cells; set-up: method as in Hart et al., 2015; settings: polyphenols of black bean seed coats; ref Hart et al., 2015
[2] = test system: lipogenic proteins; set-up: method as in Chavez-Santoscoy et al., 2014; Ramírez-Jiménez et al., 2015; settings: black bean flavonoid; ref Chavez-Santoscoy et al., 2014; Ramírez-Jiménez et al., 2015

SMILES | effect on Fe uptake [1] | effect on expression of lipogenic proteins [2]
O=C(O)c1ccc(O)c(O)c1 [3,4-dihydroxybenzoic acid] | promote Fe uptake | –
O.Oc1cc(O)c2c(c1)O[C@H](c1ccc(O)c(O)c1)[C@@H](O)C2 [Catechin] | promote Fe uptake | –
O=c1c(O[C@@H]2O[C@H](CO)[C@@H](O)[C@H](O)[C@H]2O)c(-c2ccc(O)cc2)oc2cc(O)cc(O)c12 [kaempferol 3-glucoside] | promote Fe uptake | –
O=c1c(O)c(-c2ccc(O)cc2)oc2cc(O)cc(O)c12 [kaempferol] | promote Fe uptake | –
O=c1c(OC2O[C@H](CO)[C@@H](O)[C@H](O)[C@H]2O)c(-c2cc(O)c(O)c(O)c2)oc2cc(O)cc(O)c12 (stereo partly drawn) [myricetin 3-glucoside] | inhibit Fe uptake | –
O=c1c(O)c(-c2cc(O)c(O)c(O)c2)oc2cc(O)cc(O)c12 [myricetin] | inhibit Fe uptake | –
O=c1c(O[C@@H]2O[C@H](CO)[C@@H](O)[C@H](O)[C@H]2O)c(-c2ccc(O)c(O)c2)oc2cc(O)cc(O)c12 [quercetin 3-glucoside] | inhibit Fe uptake | strong effects on down-regulation of expression of lipogenic proteins
O=c1c(O)c(-c2ccc(O)c(O)c2)oc2cc(O)cc(O)c12 [quercetin] | inhibit Fe uptake | –
